# Test results published in patent US20220033407A1, “N-(pyridin-2-ylsulfonyl)cyclopropanecarboxamide Derivatives and their Use in the Treatment of Disease” (NOVARTIS AG, priority 2018, published 2022).
# Assays:
# delF508-CFTR-HRP = target: T1, delF508-CFTR-HRP (Homo sapiens, UniProt P13569, DEL508-508); assay: Measurement of delF508-CFTR-HRP surface expression in CFBE41o- cells (HRP luminescence); assay type: cell-based; settings: for Emax: CFBE41o-, read-out: DelF508-CFTR-HRP Amax %; for EC50: mean of at least two replicates;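 as to DelF508-CFTR-HRP Amax %: percent efficacy relative to a reference CFTR corrector compound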
# T1 construct: expressed in transfected cells
# Summary of the method: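 Stably transfected CFBE41o- cells carrying HRP in the fourth extracellular loop of delF508-CFTR, induced with 500 ng/mL doxycycline for 48 h, then compound-treated 24 h at 37° C (10-point, 3-fold, top 10 μM). Surface HRP detected by luminescent substrate; EC50 from logistic fit, triplicates, normalized to lowest-concentration median.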
# delF508-CFTR = target: T2, delF508-CFTR (Homo sapiens, UniProt P13569, DEL508-508); assay: delF508-CFTR functional activity in primary human bronchial epithelial cells (HBECs), Multi-Transepithelial Clamp Circuit (MTECC-24) assay, equivalent short circuit current; assay type: cell-based; settings: primary CF HBECs; for MTECC24 CFHBEC-Amax %: relative to reference combination 2 μM 3-(6-(1-(2,2-difluorobenzo[d][1,3]dioxol-5-yl)cyclopropane-1-carboxamido)-3-methylpyridin-2-yl)benzoic acid (24 h) + 0.5 μM N-(2,4-di-tert-butyl-5-hydroxyphenyl)-4-oxo-1,4-dihydroquinoline-3-carboxamide; for EC50: test compound added 24 h before assay, potentiator (S)-3-amino-6-methoxy-N-(3,3,3-trifluoro-2-hydroxy-2-methylpropyl)-5-(trifluoromethyl)picolinamide present at assay, mean of at least two replicates, read-out: MTECC24 CFHBEC-EC50
# T2 construct: functional activity of the CFTR channel (Chloride ion transport) in patient derived primary human bronchial epithelial cells; host or cells: patient-derived primary human bronchial epithelial cells (HBECs), delF508-CFTR
# Text: Measurement of delF508-CFTR Functional Activity in Primary Human Bronchial Epithelial Cells (HBECs) Using Multi-Transepithelial Clamp Circuit (MTECC-24) Assay
# This assay measures the functional activity of the CFTR channel (Chloride ion transport) in patient derived primary human bronchial epithelial cells with forskolin activation and in the presence of the CFTR corrector wherein the corrector is a compound of the invention and the potentiator is (S)-3-amino-6-methoxy-N-(3,3,3-trifluoro-2-hydroxy-2-methylpropyl)-5-(trifluoromethyl)picolinamide.
# Primary human delF508-CFTR bronchial epithelial cells were purchased from Asterand and cultured according to previously established methods (Fulcher et al. (2005) Methods Mol Med 107: 183-206). Briefly, vendor supplied cells were rapidly defrosted and added to a T175 flask in 50 mL growth media (Lonza BEBM media with Lonza BEGM singlequots). Media was replaced after 24 h and then cells were fed every other day until cells were 80-90% confluent, at which point cells were cryopreserved. These P1 vials were thawed at 37° C. as needed and added to T175 flasks in 50 mL growth media at 5×10^5 cells/flask. Media was replaced after 24 h, and then cells were fed every other day until 80-90% confluent. Cells were lifted with 5 mL Accutase at 37° C. for 5 minutes, centrifuged at 1000 rpms for 5 min (300 g), and resuspended in differentiation media (50% BEBM in DMEM, BEGM singlequots, all trans retinoic acid (5×10·8M)). Cells were then counted and cell suspension was added to collagen coated inserts at 3×10^4 cells/insert in 0.15 mL with 0.5 mL differentiation media on the basolateral side.
# Apical and basolateral media were replaced on alternate days, and following day 7 (or when confluent plus 2 days), air liquid interface was established for approximately two weeks by removal of apical media. One day prior to use on the MTECC24 system (EP-Devices, EP Design, Belgium), 0.15 mL of warmed (37° C.) PBS was added to the apical surface of the cultures and returned to humidifier (37° C., 5% CO2 incubator) for 30 min before aspirating the apical surface to remove any mucus.
# Compound treatments were then prepared. Compound dilutions, typically a 10 point concentration response with 1 in 3 dilution steps, were made in 100% DMSO before dilution 1 in 1000 into differentiation medium with a final DMSO concentration of 0.1% or 0.2% for the study. Compound containing medium was then transferred into the wells of a 24 well plate at 0.5 mL per well and warmed for 30 min in a 37° C. incubator prior to transferring washed inserts into the compound containing plates. Cells were incubated in compound containing medium (basolateral only) for 24 h prior to measurement in the MTECC24 system.
# Following 24 hr treatment, compound dilutions were prepared again, diluted 1 in 1000 into 37° C. assay medium (F-12 Coon's modified, 20 mM HEPES pH7.4 with TRIS Base, No FCS or bicarbonate). Cells which were treated for 24 h with test compound were then transferred into plates containing 0.75 mL compound treatment in assay medium (basolateral) and 0.25 mL of the compound containing assay medium was added to the apical surface. The plates were then transferred to the heated plate compartments of the MTECC24 system for 45 min prior to measurements (this can also be done in a non-CO2 37° C. humidified incubator). Basolateral temperature should not exceed 36.5° C. and apical temperature should be approximately 35.5° C.
# Modulators were added sequentially as follows while the MTECC24 instrument recorded the equivalent short circuit current (Ieq)
# Prior to dilution into F-12 medium the stocks are as follows: Amiloride stock is 10 mM in H2O
# Forskolin Stock is 10 mM in 100% DMSO
# (S)-3-amino-6-methoxy-N-(3,3,3-trifluoro-2-hydroxy-2-methylpropyl)-5-(trifluoromethyl)picolinamide is 0.5 mM stock in 100% DMSO INH-172 (4-[[4-Oxo-2-thioxo-3-[3-trifluoromethyl)phenyl]-5-thiazolidinylidene]methyl]benzoic acid) stock is 30 mM in 100% DMSO […]
# T1 sequence (P13569 with tags, fused parts or gaps DEL508-508): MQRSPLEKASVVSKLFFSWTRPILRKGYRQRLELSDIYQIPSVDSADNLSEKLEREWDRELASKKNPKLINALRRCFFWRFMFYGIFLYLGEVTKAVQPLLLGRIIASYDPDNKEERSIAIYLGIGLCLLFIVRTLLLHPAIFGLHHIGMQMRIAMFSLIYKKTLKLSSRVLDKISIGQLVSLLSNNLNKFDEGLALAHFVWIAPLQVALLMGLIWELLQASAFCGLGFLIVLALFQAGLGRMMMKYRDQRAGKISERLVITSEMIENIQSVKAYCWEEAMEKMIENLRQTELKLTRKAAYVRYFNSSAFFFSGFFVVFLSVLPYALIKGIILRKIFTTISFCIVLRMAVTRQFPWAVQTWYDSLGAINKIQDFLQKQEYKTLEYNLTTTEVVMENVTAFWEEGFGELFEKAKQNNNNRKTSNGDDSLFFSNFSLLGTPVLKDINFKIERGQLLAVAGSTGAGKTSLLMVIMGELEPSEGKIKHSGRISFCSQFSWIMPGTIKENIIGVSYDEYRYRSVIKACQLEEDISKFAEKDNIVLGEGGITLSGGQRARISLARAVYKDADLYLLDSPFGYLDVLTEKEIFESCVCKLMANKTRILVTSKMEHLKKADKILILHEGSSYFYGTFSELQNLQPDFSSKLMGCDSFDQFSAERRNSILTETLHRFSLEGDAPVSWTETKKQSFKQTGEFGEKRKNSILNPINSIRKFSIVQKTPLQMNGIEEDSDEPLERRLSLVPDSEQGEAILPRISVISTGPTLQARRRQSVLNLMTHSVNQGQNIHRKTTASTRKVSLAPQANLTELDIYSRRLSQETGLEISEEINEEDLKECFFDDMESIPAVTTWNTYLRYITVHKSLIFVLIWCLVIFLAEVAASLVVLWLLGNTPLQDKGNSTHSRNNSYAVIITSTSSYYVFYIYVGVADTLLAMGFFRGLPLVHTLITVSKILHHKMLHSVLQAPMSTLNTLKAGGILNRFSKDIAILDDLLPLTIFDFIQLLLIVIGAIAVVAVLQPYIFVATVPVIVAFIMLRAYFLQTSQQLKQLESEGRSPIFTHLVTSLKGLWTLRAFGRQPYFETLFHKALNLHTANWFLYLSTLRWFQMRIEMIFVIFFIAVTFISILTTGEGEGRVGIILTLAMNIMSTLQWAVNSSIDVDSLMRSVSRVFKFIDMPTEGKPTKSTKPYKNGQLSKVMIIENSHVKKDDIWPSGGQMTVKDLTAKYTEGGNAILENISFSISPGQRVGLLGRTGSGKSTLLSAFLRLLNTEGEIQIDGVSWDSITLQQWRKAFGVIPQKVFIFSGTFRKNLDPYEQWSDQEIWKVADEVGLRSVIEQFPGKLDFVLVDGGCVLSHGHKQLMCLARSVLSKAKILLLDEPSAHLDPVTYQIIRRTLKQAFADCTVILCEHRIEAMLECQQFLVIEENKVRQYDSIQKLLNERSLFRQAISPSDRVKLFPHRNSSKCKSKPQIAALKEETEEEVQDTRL
# T2 sequence (P13569 with tags, fused parts or gaps DEL508-508): as above
SMILES,Emax (delF508-CFTR-HRP) [%],EC50 (delF508-CFTR-HRP) [nM],MTECC24 CFHBEC-Amax % (delF508-CFTR) [%],EC50 (delF508-CFTR) [nM],DelF508-CFTR-HRP Amax % (delF508-CFTR-HRP) [%]
"Cc1ccc(C2CCCCC2)c(OC2(C(=O)NS(=O)(=O)c3cccc(N4CCC(C)(C(N)=O)CC4)n3)CC2)c1 [Example 2-14, 1-(6-(N-(1-(2-cyclohexyl-5-methylphenoxy)cyclopropanecarbonyl)sulfamoyl)pyridin-2-yl)-4-methylpiperidine-4-carboxamide]",319,2780,75,31,
"Cc1ccc(OCCC2CCCCC2)c(OC2(C(=O)NS(=O)(=O)c3cccc(N4CC[C@H](O)C4)n3)CC2)c1 [Example 6-11, (S)-1-(2-(2-cyclohexylethoxy)-5-methylphenoxy)-N-((6-(3-hydroxypyrrolidin-1-yl)pyridin-2-yl)sulfonyl)cyclopropanecarboxamide]",311,1180,113.6,261,
"Cc1ccc(C2CCC3(CCCC3)OC2)c(OC2(C(=O)NS(=O)(=O)c3cccc(N4CCC(O)(c5ccc(Cl)cc5)CC4)n3)CC2)c1 (single isomer, unassigned) [Example 11-3-1, N-((6-(4-(4-chlorophenyl)-4-hydroxypiperidin-1-yl)pyridin-2-yl)sulfonyl)-1-(5-methyl-2-(6-oxaspiro[4.5]decan-8-yl)phenoxy)cyclopropane-1-carboxamide]",,680,100.3,117,380.3
"C[C@H](O)CNc1cccc(S(=O)(=O)NC(=O)C2(Oc3cc(Cl)ccc3C3CC3)CC2)n1 [Example 4-15, (S)-1-(5-Chloro-2-cyclopropylphenoxy)-N-((6-((2-hydroxypropyl)amino)pyridin-2-yl)sulfonyl)cyclopropane-1-carboxamide]",114,4160,35,69,
"CC1(O)CN(c2cccc(S(=O)(=O)NC(=O)C3(Oc4cc(Cl)ccc4C4CC5(CCC5)C4)CC3)n2)C1 [Example 7-10, 1-(5-Chloro-2-(spiro[3.3]heptan-2-yl)phenoxy)-N-((6-(3-hydroxy-3-methylazetidin-1-yl)pyridin-2-yl)sulfonyl)cyclopropane-1-carboxamide]",367,1670,115.5,356,
"Cc1ccc(C2CCCCC2)c(OC2(C(=O)NS(=O)(=O)c3cccc(N4CCC5(CCCC5N)CC4)n3)CC2)c1 (stereo not drawn) [Example 2-20, N-((6-(1-Amino-8-azaspiro[4.5]decan-8-yl)pyridin-2-yl)sulfonyl)-1-(2-cyclohexyl-5-methylphenoxy)cyclopropanecarboxamide]",354,2540,122,198,
"Cc1ccc(C2CCCCC2)c(OC2(C(=O)NS(=O)(=O)c3cccc(N4CCN(C(=O)OC(C)(C)C)CC4)n3)CC2)c1 [Example 2-34, Tert-butyl 4-(6-(N-(1-(2-cyclohexyl-5-methylphenoxy)cyclopropanecarbonyl)sulfamoyl)pyridin-2-yl)piperazine-1-carboxylate]",366,1100,57,15,
"O=C(NS(=O)(=O)c1cccc(N2CC[C@H](O)C2)n1)C1(Oc2cc(Cl)ccc2N2CC3CCC(C3)C2)CC1 [Example 9-18, 1-(2-(3-Azabicyclo[3.2.1]octan-3-yl)-5-chlorophenoxy)-N-((6-((S)-3-hydroxypyrrolidin-1-yl)pyridin-2-yl)sulfonyl)cyclopropanecarboxamide]",510,1300,148.1,548,
"Cc1ccc(C2CCCCC2)c(OC2(C(=O)NS(=O)(=O)c3cccc(N4CCOC(C)C4)n3)CC2)c1 (stereo not drawn) [Example 2-51, 1-(2-Cyclohexyl-5-methylphenoxy)-N-((6-(2-methylmorpholino)pyridin-2-yl)sulfonyl)cyclopropane-1-carboxamide]",621,1760,85,3,
"Cc1ccc(C2CCC(F)(F)CC2)c(OC2(C(=O)NS(=O)(=O)c3cccc(N)n3)CC2)c1 [Example 1-4, N-((6-Aminopyridin-2-yl)sulfonyl)-1-(2-(4,4-difluorocyclohexyl)-5-methylphenoxy)cyclopropane-1-carboxamide]",260,3970,59,437,
"CO[C@H]1CCN(c2cccc(S(=O)(=O)NC(=O)C3(Oc4cc(Cl)ccc4C4CC5(CCC5)C4)CC3)n2)C1 [Example 7-14, (S)-1-(5-Chloro-2-(spiro[3.3]heptan-2-yl)phenoxy)-N-((6-(3-methoxypyrrolidin-1-yl)pyridin-2-yl)sulfonyl)cyclopropane-1-carboxamide]",496,1100,128.1,317,
"Cc1ccc([C@H]2CC[C@H](F)CC2)c(OC2(C(=O)NS(=O)(=O)c3cccc(N4CC(C)(O)C4)n3)CC2)c1 (single isomer, unassigned) [Example 4-1, 1-(2-(Trans-4-fluorocyclohexyl)-5-methylphenoxy)-N-((6-(3-hydroxy-3-methylazetidin-1-yl)pyridin-2-yl)sulfonyl)cyclopropane-1-carboxamide]",297,4030,84,226,
"Cc1ccc(C2CCCOC2)c(OC2(C(=O)NS(=O)(=O)c3cccc(N4CCC[C@@H](CO)C4)n3)CC2)c1 (stereo partly drawn) [Example 4-20, N-((6-((R)-3-(hydroxymethyl)piperidin-1-yl)pyridin-2-yl)sulfonyl)-1-(5-methyl-2-(tetrahydro-2H-pyran-3-yl)phenoxy)cyclopropane-1-carboxamide]",202,3230,54,297,
"Cc1ccc(S(=O)(=O)N2CC3(CCN3c3cccc(S(=O)(=O)NC(=O)C4(Oc5cc(C)ccc5C5CCCCC5)CC4)n3)C2)cc1 [Example 2-56, 1-(2-Cyclohexyl-5-methylphenoxy)-N-((6-(6-tosyl-1,6-diazaspiro[3.3]heptan-1-yl)pyridin-2-yl)sulfonyl)cyclopropane-1-carboxamide]",381,2510,83,40,
"Cc1ccc(C2CCCCC2)c(OC2(C(=O)NS(=O)(=O)c3cccc(N4CC(C)(NC(=O)OC(C)(C)C)C4)n3)CC2)c1 [Example 2-50, Tert-butyl (1-(6-(N-(1-(2-cyclohexyl-5-methylphenoxy)cyclopropane-1-carbonyl)sulfamoyl)pyridin-2-yl)-3-methylazetidin-3-yl)carbamate]",628,1270,93,4,
